Measured values as given in US20180022922A1, “METHOD FOR PREPARING A COLORANT FOR USE IN A HOT MELT INK” (Océ Holding B.V., priority 2016, published 2018).

Assay: Migration test (paper chromatography)
Type: physicochemical
Details: Wattmann 1-CHR paper, eluent cyclohexane/toluene 50 wt %/50 wt %, judged qualitatively (FIG. 5)
Experimental: A chromatography test is performed to provide an (comparative) indication of migration of a colorant on a print substrate. For this, solutions of the colorants to be tested, in dichloromethane are prepared. The prepared solutions contain substantially equal concentrations of colorant. For the purpose of the present invention, the eluent solution consists of a cyclohexane/toluene mixture (50 wt %/50 wt %). A sheet of Wattmann 1-CHR paper is used as a substrate. At about 1 cm from the bottom edge of the paper sheet dots of equal size of the colorant solutions are made (by using a pipette). Each dot is positioned at substantially the same distance from the bottom edge of the paper sheet. Then the sheet is left to dry. A beaker is filled with eluent solution such that the level of eluent solution is less than 1 cm. The dried test sample (paper sheet provided with colorant dots) is placed in the beaker such that the lower edge of the paper sheet touches the bottom of the beaker. Due to capillary flow the eluent solution will flow upward in the paper sheet. This set up is left to stand until the wetted height of paper sheet is at least 1.5 times the height to which the most soluble colorant rises. The results are judged qualitatively. If the colorant dot remains at the starting position, migration is not likely to occur. […]

Cn1c(=O)cc2c3c(c(NC4CCCCC4)ccc31)C(=O)c1ccccc1-2 [SR149]
migration of colorant on paper substrate: significant migration
